“Also recorded” adds a separate entry of the source.
Columns and labels:
[1] = molecular target: T1, human M1 (hM1) (Homo sapiens, UniProt P11229); experiment: hM1 PAM functional; format: cell-based; details: for hM1 PAM activity: tested up to 30 μM; for efficacy (% AChmax) compared with ML137: at the highest concentration tested of 30 μM; for pEC50: Table 2, hM1, mean ± SEM
T1 sequence (P11229 1-460): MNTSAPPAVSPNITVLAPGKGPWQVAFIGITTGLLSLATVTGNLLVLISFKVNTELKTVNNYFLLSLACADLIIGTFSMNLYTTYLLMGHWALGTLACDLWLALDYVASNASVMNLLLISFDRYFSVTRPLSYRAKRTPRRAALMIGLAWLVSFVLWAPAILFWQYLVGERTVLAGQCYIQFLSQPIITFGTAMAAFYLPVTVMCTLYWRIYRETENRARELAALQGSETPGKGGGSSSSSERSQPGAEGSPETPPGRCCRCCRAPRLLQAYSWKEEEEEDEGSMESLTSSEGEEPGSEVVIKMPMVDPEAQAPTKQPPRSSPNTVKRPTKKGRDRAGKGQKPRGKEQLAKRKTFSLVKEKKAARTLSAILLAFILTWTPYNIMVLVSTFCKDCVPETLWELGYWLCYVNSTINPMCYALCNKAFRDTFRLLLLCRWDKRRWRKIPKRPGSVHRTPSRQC

[2] = molecular target: T2, hM1 (Homo sapiens, UniProt P11229); experiment: ACh fold-shift experiment; format: cell-based; details: ML137 to 14
T2 sequence (P11229 1-460): T1 sequence (P11229 1-460)

[3] = test system: human muscarinic receptor subtypes; format: cell-based; details: hM1 over the other muscarinic receptor subtypes; Figure 4
[4] = molecular target: T1, human M1 (hM1); details: cited from earlier work
[5] = Chemical stability observation; format: physicochemical; details: presumed air oxidation or self-condensation

| SMILES | hM1 PAM activity [1] | other results |
| --- | --- | --- |
| Cn1cc(-c2ccc(Cn3c(=O)[nH]c4ccccc43)c(F)c2)cn1 [Compound 15] | not tolerated |  |
| Cn1cc(-c2ccc(CN3CCc4ccccc43)c(F)c2)cn1 [Compound 16] | not tolerated |  |
| Cn1cc(-c2ccc(CN3CCSc4ccccc43)c(F)c2)cn1 [Compound 24k] | no activity at all |  |
| CC(C)n1cc(-c2ccc(CN3C(=O)C(O)(C(F)(F)F)c4ccccc43)c(F)c2)cn1 (stereo not shown) [Compound 23l] | complete loss of activity |  |
| CN(C)C1(C)C(=O)N(Cc2ccc(-c3cnn(C)c3)cc2)c2ccccc21 (stereo not shown) [Compound 23d] | weakly active |  |
| O=C1N(Cc2ccc(-c3cn[nH]c3)cc2F)c2ccccc2C1(O)C(F)(F)F (stereo not shown) [Compound 23m] | complete loss of activity |  |
| Cn1cc(-c2ccc(CN3c4ccccc4CS3(=O)=O)c(F)c2)cn1 [Compound 13] |  | efficacy (% AChmax) compared with ML137 [1]: comparable efficacy |
| Cn1cc(-c2ccc(CN3C(=O)Cc4ccccc43)c(F)c2)cn1 [Compound 14] |  | decrease in hM1 PAM EC50 (potency) relative to ML137 ([1]; ML137 to 14): 4 fold; efficacy (% AChmax) compared with ML137 [1]: comparable efficacy; improvement in ACh fold-shift relative to ML137 [2]: 10 fold; muscarinic receptor subtype selectivity [3]: little-to-no erosion of muscarinic subtype selectivity; also recorded: very selective for the hM1 receptor |
| Cn1cc(-c2ccc(CN3C(=O)C(C)(N)c4ccccc43)c(F)c2)cn1 (stereo not shown) [Compound 23c] | weakly active |  |
| CC(=O)N(Cc1ccc(-c2cnn(C)c2)cc1F)c1ccccc1 [Compound 17] | inactive |  |
| CCCn1cc(-c2ccc(CN3C(=O)C(O)(C(F)(F)F)c4ccccc43)c(F)c2)cn1 (stereo not shown) [Compound 23k] | complete loss of activity |  |
| Cn1cc(-c2ccc(CN3C(=O)c4cccc5cccc3c45)c(F)c2)cn1 [Compound 18] | detrimental to activity |  |
| Cn1cc(-c2ccc(CN3C(=O)C(=O)c4ccccc43)c(F)c2)cn1 [ML137] |  | %AChmax previously reported [4]: 65% |
| Cn1cc(-c2ccc(Cn3ccccc3=O)c(F)c2)cn1 [Compound 24d] | loss of all PAM activity |  |
| Cn1cc(-c2ccc(CN3C(=O)COc4ccccc43)c(F)c2)cn1 [Compound 24e] |  | pEC50 [1]: 5.29 ± 0.09 |
| Cn1cc(-c2ccc(CN3C(=O)CSc4ccccc43)c(F)c2)cn1 [Compound 24h] |  | pEC50 [1]: 5.49 ± 0.12 |
| Cn1cc(-c2ccc(CN3C(=O)C(C)(O)c4ccccc43)c(F)c2)cn1 (stereo not shown) [Compound 23e] |  | chemical stability [5]: stable |
| Cn1cc(-c2ccc(CN3C(=O)C(N)c4ccccc43)c(F)c2)cn1 (stereo not shown) [Compound 23b] |  | increase in hM1 potency over 14 ([1]; ratio of EC50 vs 14): 2 fold; chemical stability [5]: undesirable level of chemical instability |

— publication PMC3534865 (Bioorganic & medicinal chemistry letters, 2012)
